Measured values: PMC7828518 (2021)

Columns and labels:
[1] = test system: F21T (DNA, G4) GGGTTAGGGTTAGGGTTAGGG; test: FRET DNA melting; conditions: K+ (10 mM KCl), Li+ (90 mM LiCl); 10 mM lithium cacodylate pH 7.3; 5 μM compound, 0.2 μM DNA
[2] = test system: Tel22 (DNA, G4) AGGGTTAGGGTTAGGGTTAGGG; test: circular dichroism titration; conditions: K+ (10 mM KCl), Li+ (90 mM LiCl); 10 mM lithium cacodylate pH 7.3, 25 °C; 4 μM DNA, ratios 1:1 to 1:5
[3] = test system: ds17 (DNA, duplex) GGGTTACTACGAACTGG/CCAGTTCGTAGTAACCC; test: equilibrium dialysis (noncompetition); conditions: K+ (100 mM KCl, 10 mM potassium phosphate), pH 7.2, 22 °C, apparent, per base pair (75 μM monomeric units), 2 μM compound
[4] = test system: F10T (DNA, hairpin, Sp18 linker joins 3' end of first TATAGCTATA to 5' end of second (one molecule)) TATAGCTATA/TATAGCTATA; test: FRET DNA melting; conditions: Li+ (100 mM LiCl) per methods; Figure 3 legend: 10 mM KCl, 90 mM LiCl; 10 mM lithium cacodylate pH 7.3; up to 10 μM compound, 0.2 μM DNA
[5] = test system: Tel22 (DNA, G4) AGGGTTAGGGTTAGGGTTAGGG; test: equilibrium dialysis (noncompetition); conditions: K+ (100 mM KCl, 10 mM potassium phosphate); pH 7.2, 22 °C; apparent; per tetrad (75 μM monomeric units); 2 μM compound; per base

SMILES: N=C(N)N/N=C/c1ccc2ccc3ccc(/C=N/NC(=N)N)nc3c2n1
- ∆Tm [1]: 7 ± 1 °C
- binding [2]: yes
- Kapp [3]: 0.029 ± 0.004 × 10^6 M^-1
- ∆Tm [4]: ~ 0 °C
- Kapp [5]: 2.3 ± 0.5 × 10^6 M^-1
